In US11584763B2, “Chromenopyridine derivatives as phosphatidylinositol phosphate kinase inhibitors” (HIBERCELL, INC., priority 2017, dated 2023) one finds IC50 data, which are given here for 14 molecules.

One test addresses T1, PIP4K2B (Homo sapiens, UniProt P78356).
T1 construct: made in house; host or cells: E. coli
T1 sequence (P78356 1-416): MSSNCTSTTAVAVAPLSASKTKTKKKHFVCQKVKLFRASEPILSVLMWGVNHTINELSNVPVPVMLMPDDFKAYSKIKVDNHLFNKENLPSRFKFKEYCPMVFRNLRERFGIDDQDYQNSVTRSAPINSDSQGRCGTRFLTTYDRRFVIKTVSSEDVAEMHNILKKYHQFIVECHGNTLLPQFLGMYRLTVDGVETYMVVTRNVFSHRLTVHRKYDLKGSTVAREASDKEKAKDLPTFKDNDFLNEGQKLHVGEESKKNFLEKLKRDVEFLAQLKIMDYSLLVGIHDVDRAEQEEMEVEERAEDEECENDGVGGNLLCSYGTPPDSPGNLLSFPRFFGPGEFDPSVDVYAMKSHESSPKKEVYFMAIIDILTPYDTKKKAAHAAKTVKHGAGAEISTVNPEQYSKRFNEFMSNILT
Nature of the test: Trans-FI P kinase assay PIP4K2B (PIP4KtypeIIB inhibition assay). The format is biochemical. As to conditions: compounds listed under IC50 bin headings; 100 uM GTP; read-out: Trans-FI P kinase assays: PIP4K2B IC50. The source says:
GST tagged PIP4KtypeIIA and B enzymes were overexpressed in E. Coli and purified to >80% homogeneity. Phosphatidyl inositol-5-phosphate (PI5P, Cat. #850152, Avanti Polar Lipids Inc.) was used as the lipid substrate and phosphatidyl ethanolamine (DOPE 18:1, Cat. #850725, Avanti Polar Lipids Inc.) was used as the carrier lipid for assays. Ultrapure ATP and GTP was purchased from Bellbrooke Labs. ADP Glo reagents were obtained from Promega. Transcreener FI reagent was obtained from Bellbrooke labs.
GST-tagged PIP4KtypeIIB (3.4 uL, 2.77 mg/mL) was diluted to 5 mL using HNE buffer to yield 5× enzyme stock (25 nM)
Lipid Preparation: In a 10 mL pyrex glass vial, 1 ug of PI5P and 1 ug of DOPE were suspended in 2.5 mL of HEPES buffer mix and 2.5 mL of H:E buffer. The contents were mixed and sonicated for 3 min to yield a translucent lipid stock.
Compound Preparation: Compounds were stored as 5 mM stocks in neat DMSO as room temperature in glass vials. 5 mM stocks were diluted to 2 mM and then serially diluted (3×) in neat DMSO in 96 well polypropylene plates. From the serially diluted stocks, 3 uL was delivered into 250 uL of 25% DMSO (in water) to generate 5× compound stocks. Typically, the highest compound conc. was 24 uM.
The assay volume was kept at 25 uL. To each well of the reaction plate, 10 uL of lipid stock (1:1 ratio PI5P:DOPE) was delivered. This was followed by the addition of 5 uL of compound in 25% DMSO. Then, to each well, 5 uL of 25 nM (5×) typeIIB enzyme was delivered. The contents were mixed well and incubated for 1 h at 27 C. After 1 h, reaction was initiated by adding 5 uL of 500 uM GTP and the contents were mixed well with a multi-channel pipetteman. The final concentration of the reagents are as follows: 50 mM HEPES, pH 7.3, 10 mM MgCl2, 20 mM NaCl, 0.01% v/v triton-X100, 5% DMSO, 100 uM GTP, 80 uM (2 ug) PI5P, 2 ug DOPE, and 5 nM PIP4KIIB Typically, the highest conc. of compounds was 4.8 uM and the lowest conc. was 0.
After 2 h, the reaction was quenched by adding 25 uL of transcreener FI reagent. The contents were incubated at RT for 1 h and the Fluorescence (Ex: 584 Em: 623) was read using Molecular Devices Paradigm plate reader. […] The blanks were averaged and subtracted from all other wells. Using a calibration curve, RFU was converted to uM GDP (product). IC50 was calculated by plotting the residual activity (expressed as % No inhibitor control) vs. log [Inh. conc.]

A further test has as its target T2, PIP4K 2A (Homo sapiens, UniProt P48426).
T2 sequence (P48426 1-406): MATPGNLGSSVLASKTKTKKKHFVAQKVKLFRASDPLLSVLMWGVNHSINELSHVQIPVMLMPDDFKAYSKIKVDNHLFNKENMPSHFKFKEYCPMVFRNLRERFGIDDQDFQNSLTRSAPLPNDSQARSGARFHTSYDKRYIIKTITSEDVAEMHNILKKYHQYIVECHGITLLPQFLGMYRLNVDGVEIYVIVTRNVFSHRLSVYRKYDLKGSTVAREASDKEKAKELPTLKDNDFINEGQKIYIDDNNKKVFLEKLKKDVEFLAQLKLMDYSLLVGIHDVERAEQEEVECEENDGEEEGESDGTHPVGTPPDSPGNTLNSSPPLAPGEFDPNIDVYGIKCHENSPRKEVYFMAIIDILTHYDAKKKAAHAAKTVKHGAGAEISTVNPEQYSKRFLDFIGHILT
Kind of test: ADP-glo kinase assay PIP4K 2A. The following applies: compounds listed under IC50 bin headings. The format is biochemical. More on the design: 4 nM PIP4K2A (full length protein, SignalChem); purchased SignalChem. The method, then: Dilution series of the compounds were prepared in DMSO at 100 times the final assay concentration (n1=n0/3 in 10 points). The compounds were further diluted to three times the assay concentration in assay buffer (20 mM MOPS pH 7.2, 25 mM magnesium chloride, 0.005% Tween 20). 6 μL of the diluted compounds were added to a 384 well assay plate followed by 9 μL of a mix consisting of 4 nM PIP4K2A (full length protein, SignalChem) and 100 μM PI(5)P diC8 (Tebu-Bio). Enzyme and compounds were pre-incubated at room temperature for 15 minutes.
Then 3 μL of a solution containing 60 μM ATP (Promega) in assay buffer was added to the wells containing compound and enzyme and mixing was performed by pipetting several times. The reaction was incubated at room temperature for 1 h. Then 18 μL of ADP-Glo™ Reagent (Promega) was added to stop the kinase reaction and deplete the unconsumed ATP, mixing was performed by pipetting several times. The plate was incubated at room temperature for 40 minutes before addition of 36 μL of Kinase Detection Reagent (Promega) to convert ADP to ATP and introduce luciferase and luciferin to detect ATP. The reaction was incubated at room temperature for 40 minutes before the luminescence was measured in a in a Victor 3V 1420 multilabel counter (Perkin Elmer).
Percent inhibition of the compounds as compared to dimethyl sulfoxide treated control samples was calculated. Compound concentration versus percent inhibition were fitted to generate IC50 values.
On the technique in general: In ADP-Glo the light output rises with the ADP produced.

As to `CC1Oc2cc(N3CCCC3=O)c(F)cc2-c2cnc(Nc3cnc4c(c3)N3C(=O)OC[C@H]3CO4)cc21` (stereo partly drawn) [Example 159, (3aR)-8-((9-fluoro-5-methyl-8-(2-oxopyrrolidin-1-yl)-5H-chromeno[4,3-c]pyridin-3-yl)amino)-3a,4-dihydro-1H,3H-oxazolo[3,4-d]pyrido[2,3-b][1,4]oxazin-1-one], the IC50 at PIP4K2B was 1 to 10 nM; against PIP4K 2A, ≤ 1 nM.

`CC1Oc2cc(N3CCCC3=O)ccc2-c2cnc(Nc3cncc(NC(=O)[C@H]4C[C@@H]4c4ccccc4)c3)cc21` (stereo partly drawn) [Example 111, (1S,2S)—N-(5-((5-methyl-8-(2-oxopyrrolidin-1-yl)-5H-chromeno[4,3-c]pyridin-3-yl)amino)pyridin-3-yl)-2-phenylcyclopropane-1-carboxamide]: the IC50 at PIP4K2B was 10 to 100 nM; against PIP4K 2A it was 1 to 10 nM.

In the case of `CC1Oc2cc(N3CCCC3=O)ccc2-c2cnc(Nc3cncc(NC(=O)c4ccc5c(c4)B(O)OC5)c3)cc21` (stereo not shown) [Example 117, 1-hydroxy-N-(5-((5-methyl-8-(2-oxopyrrolidin-1-yl)-5H-chromeno[4,3-c]pyridin-3-yl)amino)pyridin-3-yl)-1,3-dihydrobenzo[c][1,2]oxaborole-6-carboxamide], the half-inhibitory concentration (IC50) at PIP4K2B fell in the range of 10 to 100 nM; against PIP4K 2A, 1 to 10 nM.

For `COCCC(=O)N1CCN(c2cncc(Nc3cc4c(cn3)-c3ccc(N5CCCC5=O)cc3OC4C)c2)CC1` (stereo not shown) [Example 169, 1-(3-((5-(4-(3-methoxypropanoyl)piperazin-1-yl)pyridin-3-yl)amino)-5-methyl-5H-chromeno[4,3-c]pyridin-8-yl)pyrrolidin-2-one], the IC50 was in the range of 10 to 100 nM at PIP4K2B and 1 to 10 nM at PIP4K 2A.

In the case of `CC1Oc2cc(N3CCCC3=O)ccc2-c2cnc(Nc3cncc(NC(=O)c4cnn5ccccc45)c3)cc21` (stereo not shown) [Example 144, N-(5-((5-methyl-8-(2-oxopyrrolidin-1-yl)-5H-chromeno[4,3-c]pyridin-3-yl)amino)pyridin-3-yl)pyrazolo[1,5-a]pyridine-3-carboxamide], the IC50 on PIP4K2B was 1 to 10 nM; against PIP4K 2A, ≤ 1 nM.

Turning to `CC1Oc2cc(N3CCCC3=O)ccc2-c2cnc(Nc3cncc(NC(=O)c4ccc5ncoc5c4)c3)cc21` (stereo not shown) [Example 109, N-(5-((5-methyl-8-(2-oxopyrrolidin-1-yl)-5H-chromeno[4,3-c]pyridin-3-yl)amino)pyridin-3-yl)benzo[d]oxazole-6-carboxamide], the IC50 on PIP4K2B and on PIP4K 2A was 1 to 10 nM in each case.

For `CC1C[C@H]2COc3ncc(Nc4cc5c(cn4)-c4ccc(N6CCCC6=O)cc4OC5C)cc3N2C1=O` (stereo partly drawn) [Example 155, (6aS)-8-methyl-2-((5-methyl-8-(2-oxopyrrolidin-1-yl)-5H-chromeno[4,3-c]pyridin-3-yl)amino)-6,6a,7,8-tetrahydro-9H-pyrido[2,3-b]pyrrolo[1,2-d][1,4]oxazin-9-one], the IC50 at PIP4K2B is 1 to 10 nM; at PIP4K 2A, ≤ 1 nM.

Consider `COCCC(=O)N1CCN(c2cncc(Nc3cc4c(cn3)-c3cc(F)c(N5CCCC5=O)cc3OC4)c2)CC1` [Example 171, 1-(9-fluoro-3-((5-(4-(3-methoxypropanoyl)piperazin-1-yl)pyridin-3-yl)amino)-5H-chromeno[4,3-c]pyridin-8-yl)pyrrolidin-2-one], for which the IC50 on PIP4K2B and against PIP4K 2A was 10 to 100 nM in each case.

For the molecule `CC1Oc2cc(N3CCCC3=O)ccc2-c2cnc(Nc3cncc(NC(=O)c4cccc5nccn45)c3)cc21` (stereo not shown) [Example 146, N-(5-((5-methyl-8-(2-oxopyrrolidin-1-yl)-5H-chromeno[4,3-c]pyridin-3-yl)amino)pyridin-3-yl)imidazo[1,2-a]pyridine-5-carboxamide], the IC50 on PIP4K2B is 1 to 10 nM; against PIP4K 2A, ≤ 1 nM.

On to `CC1Oc2cc(N3CCCC3=O)ccc2-c2cnc(Nc3cncc(NC(=O)c4cnc5ccccn45)c3)cc21` (stereo not shown) [Example 143, N-(5-((5-methyl-8-(2-oxopyrrolidin-1-yl)-5H-chromeno[4,3-c]pyridin-3-yl)amino)pyridin-3-yl)imidazo[1,2-a]pyridine-3-carboxamide], for which the IC50 was 1 to 10 nM on PIP4K2B and ≤ 1 nM at PIP4K 2A.

As for `CC1Oc2cc(N3CCCC3=O)ccc2-c2cnc(Nc3cncc(N4CCN(C)S4(=O)=O)c3)cc21` (stereo not shown) [Example 185, 1-(5-methyl-3-((5-(5-methyl-1,1-dioxido-1,2,5-thiadiazolidin-2-yl)pyridin-3-yl)amino)-5H-chromeno[4,3-c]pyridin-8-yl)pyrrolidin-2-one], the IC50 at PIP4K2B fell in the range of 100 to 1000 nM; against PIP4K 2A it was 1 to 10 nM.

With `CC1Oc2cc(N3CCCC3=O)ccc2-c2cnc(Nc3cncc(NC(=O)CCc4cccc(NC(=O)CCCN(C)C)c4)c3)cc21` (stereo not shown) [Example 177, 4-(dimethylamino)-N-(3-(3-((5-((5-methyl-8-(2-oxopyrrolidin-1-yl)-5H-chromeno[4,3-c]pyridin-3-yl)amino)pyridin-3-yl)amino)-3-oxopropyl)phenyl)butanamide], the IC50 at PIP4K2B and at PIP4K 2A was 1 to 10 nM in each case.

On to `O=C1CCCN1c1cc2c(cc1F)-c1cnc(Nc3cnc4c(c3)OCCO4)cc1CO2` [Example 165, 1-(3-((2,3-dihydro-[1,4]dioxino[2,3-b]pyridin-7-yl)amino)-9-fluoro-5H-chromeno[4,3-c]pyridin-8-yl)pyrrolidin-2-one], for which the half-inhibitory concentration (IC50) at PIP4K2B and against PIP4K 2A was 10 to 100 nM each time.

In the case of `CC1Oc2cc(N3CCCC3=O)ccc2-c2cnc(Nc3cnc4c(c3)N3C(=O)C(O)C[C@H]3CO4)cc21` (stereo partly drawn) [Example 206, (6aS)-8-hydroxy-2-((5-methyl-8-(2-oxopyrrolidin-1-yl)-5H-chromeno[4,3-c]pyridin-3-yl)amino)-6,6a,7,8-tetrahydro-9H-pyrido[2,3-b]pyrrolo[1,2-d][1,4]oxazin-9-one], the IC50 at PIP4K2B was 1 to 10 nM; against PIP4K 2A, ≤ 1 nM.

For orientation: IC50 means the concentration needed to halve the response being measured.
